# System: luciferase reporter construct containing a UGA premature termination codon
# Test: cell-based luciferase reporter assay
# Parameters: species or system Human; key to Activity: *****: both extremely high potency and extremely high efficacy of protein synthesis; ****: extremely high potency of protein synthesis and very high efficacy; ****: very high potency of protein synthesis and extremely high efficacy; ***: both very high potency and very high efficacy of protein synthesis; **: very high potency of protein synthesis and significant efficacy; **: significant potency of protein synthesis and very high efficacy; *: significant potency and efficacy of protein synthesis
# Conditions: ranking combining potency and efficacy of protein synthesis; UGA luciferase reporter stably transfected in 293T Human Embryonic Kidney cells
# Protocol: Activity measurements in Table I were performed in a cell-based luciferase reporter assay (as described in Section 4.2) comprising a luciferase reporter construct containing a UGA premature termination codon that was stably transfected in 293T Human Embryonic Kidney cells. A small molecule, 3-[3-(4-Isopropyl-phenyl)-2,5-dioxo-imidazolidin-1-yl]-benzoic acid, known to allow readthrough of premature termination codons was used was used as an internal standard. Activity measurements are based on the qualitative relation between the minimum concentration of compound required to produce a given protein in a cell (potency) and the maximum amount of protein produced by the cell (efficacy). Potency and efficacy activities are ranked as either extremely high, very high or significant. The combination of these activities is used to determine the activity ranking.
# Two assays were developed for use in high throughput screens to identify small molecules that promote nonsense suppression. Each assay utilized luciferase because it is a functional reporter gene assay (light is only produced if the protein is functional) and it is extremely sensitive (Light intensity is proportional to luciferase concentration in the nM range). The first assay is a cell-based luciferase reporter assay and the second is a biochemical assay consisting of rabbit reticulocyte lysate and a nonsense-containing luciferase reporter mRNA. In the cell-based assay, a luciferase reporter construct containing a UGA premature termination codon was stably transfected in 293T Human Embryonic Kidney cells. In the biochemical assay, mRNA containing a UGA premature termination codon was used as a reporter in an in vitro translation reaction using rabbit reticulocyte lysate supplemented with tRNA, hemin, creatine kinase, amino acids, KOAc, Mg(OAc)2, and creatine phosphate. […] Synthetic mRNA was prepared in vitro using the T7 promoter and the MegaScript in vitro transcription kit (Ambion).
# To determine whether compounds also function in vivo, a stable cell line harboring the UGA nonsense-containing luciferase gene was treated with selected compounds. Cells were grown in standard medium supplemented with 1% penicillin-streptomycin (P/S) and 10% fetal bovine serum (FBS) to 70% confluency and split 1:1 the day before treatment. On the following day, cells were trypsinized and 40,000 cells were added to each well of a 96-well tissue culture dish. Serial dilutions of each compound were prepared to generate a six-point dose response curve spanning 2 logs (30 μM to 0.3 μM). The final concentration of the DMSO solvent remained constant at 1% in each well. Cells treated with 1% DMSO served as the background standard, and cells treated with gentamicin served as a positive control.
row,SMILES,Activity
1,"O=C(O)c1cccc(-c2noc(-c3cccc(Cl)c3)n2)c1 [Compound 01, 3-[5-(3-Chloro-phenyl)-[1,2,4]oxadiazol-3-yl]-benzoic acid]",*****
2,"CCCCCOc1ccc(-c2nc(-c3cccc(C(=O)O)c3)no2)cc1 [Compound 02, 3-[5-(4-Pentyloxy-phenyl)-[1,2,4]oxadiazol-3-yl]-benzoic acid]",***
3,"O=C(O)c1cccc(-c2noc(-c3cccc4ccccc34)n2)c1 [Compound 03, 3-(5-Naphthalen-1-yl-[1,2,4]oxadiazol-3-yl)-benzoic acid]",****
4,"Cc1ccc(-c2nc(-c3cccc(C(=O)O)c3)no2)cc1 [Compound 04, 3-(5-p-Tolyl-[1,2,4]oxadiazol-3-yl)-benzoic acid]",*****
5,"O=C(O)c1cccc(-c2noc(-c3ccc(F)cc3)n2)c1 [Compound 05, 3-[5-(4-Fluoro-phenyl)-[1,2,4]oxadiazol-3-yl]-benzoic acid]",*****
6,"O=C(O)c1cccc(-c2noc(-c3ccc(-c4ccccc4)cc3)n2)c1 [Compound 06, 3-(5-Biphenyl-4-yl-[1,2,4]oxadiazol-3-yl)-benzoic acid]",****
7,"CC(C)Cc1ccc(-c2nc(-c3cccc(C(=O)O)c3)no2)cc1 [Compound 07, 3-[5-(4-Isobutyl-phenyl)-[1,2,4]oxadiazol-3-yl]-benzoic acid]",**
8,"O=C(O)c1cccc(-c2noc(-c3ccccc3)n2)c1 [Compound 08, 3-(5-Phenyl-[1,2,4]oxadiazol-3-yl)-benzoic acid]",*****
9,"O=C(O)c1cccc(-c2noc(C3CCCCC3)n2)c1 [Compound 09, 3-(5-Cyclohexyl-[1,2,4]oxadiazol-3-yl)-benzoic acid]",****
10,"COc1cc(-c2nc(-c3cccc(C(=O)O)c3)no2)cc(OC)c1OC [Compound 10, 3-[5-(3,4,5-Trimethoxy-phenyl)-[1,2,4]oxadiazol-3-yl]-benzoic acid]",***
11,"O=C(O)c1cccc(-c2noc(-c3ccc([N+](=O)[O-])cc3)n2)c1 [Compound 11, 3-[5-(4-Nitro-phenyl)-[1,2,4]oxadiazol-3-yl]-benzoic acid]",****
12,"COc1ccc(-c2nc(-c3cccc(C(=O)O)c3)no2)cc1 [Compound 12, 3-[5-(4-Methoxy-phenyl)-[1,2,4]oxadiazol-3-yl]-benzoic acid]",*****
13,"Cc1ccccc1-c1nc(-c2cccc(C(=O)O)c2)no1 [Compound 13, 3-[5-(o-tolyl)-[1,2,4]oxadiazol-3-yl]-benzoic acid]",*****
14,"O=C(O)c1cccc(-c2noc(-c3ccc4c(c3)OCO4)n2)c1 [Compound 14, 3-(5-Benzo[1,3]dioxol-5-yl-[1,2,4]oxadiazol-3-yl)-benzoic acid]",*****
15,"CC(C)c1nc(-c2cccc(C(=O)O)c2)no1 [Compound 15, 3-(5-Isopropyl-[1,2,4]oxadiazol-3-yl)-benzoic acid]",****
16,"O=C(O)c1cccc(-c2noc(-c3cc(C(F)(F)F)cc(C(F)(F)F)c3)n2)c1 [Compound 16, 3-[5-(3,5-Bis-trifluoromethyl-phenyl)-[1,2,4]oxadiazol-3-yl]-benzoic acid]",****
17,"O=C(O)c1cccc(-c2noc(-c3ccc(C(F)(F)F)cc3)n2)c1 [Compound 17, 3-[5-(4-Trifluoromethyl-phenyl)-[1,2,4]oxadiazol-3-yl]-benzoic acid]",*****
18,"CN(C)c1ccc(-c2nc(-c3cccc(C(=O)O)c3)no2)cc1 [Compound 18, 3-[5-(4-Dimethylamino-phenyl)-[1,2,4]oxadiazol-3-yl]-benzoic acid]",****
19,"COc1ccccc1-c1nc(-c2cccc(C(=O)O)c2)no1 [Compound 19, 3-[5-(2-Methoxy-phenyl)-[1,2,4]oxadiazol-3-yl]-benzoic acid]",***

row,SMILES,Activity
1,"COc1cccc(-c2nc(-c3cccc(C(=O)O)c3)no2)c1 [Compound 20, 3-[5-(3-Methoxy-phenyl)-[1,2,4]oxadiazol-3-yl]-benzoic acid]",****
2,"O=C(O)c1cccc(-c2noc(-c3ccco3)n2)c1 [Compound 21, 3-(5-Furan-2-yl-[1,2,4]oxadiazol-3-yl)-benzoic acid]",****
3,"CC(C)(C)c1nc(-c2cccc(C(=O)O)c2)no1 [Compound 22, 3-(5-tert-Butyl-[1,2,4]oxadiazol-3-yl)-benzoic acid]",*
4,"O=C(O)c1cccc(-c2noc(-c3ccc4nonc4c3)n2)c1 [Compound 23, 3-(5-Benzo[1,2,5]oxadiazol-5-yl-[1,2,4]oxadiazol-3-yl)-benzoic acid]",****
5,"O=C(O)c1cccc(-c2noc(-c3ccc(CCl)cc3)n2)c1 [Compound 24, 3-[5-(4-Chloromethyl-phenyl)-[1,2,4]oxadiazol-3-yl]-benzoic acid]",*****
6,"CC(C)(C)c1ccc(-c2nc(-c3cccc(C(=O)O)c3)no2)cc1 [Compound 25, 3-[5-(4-tert-Butyl-phenyl)-[1,2,4]oxadiazol-3-yl]-benzoic acid]",*****
7,"CCCCc1nc(-c2cccc(C(=O)O)c2)no1 [Compound 26, 3-(5-Butyl-[1,2,4]oxadiazol-3-yl)-benzoic acid]",****
8,"O=C(O)c1cccc(-c2noc(C3CC3)n2)c1 [Compound 27, 3-(5-Cyclopropyl-[1,2,4]oxadiazol-3-yl)-benzoic acid]",****
9,"O=C(O)c1cccc(-c2noc(-c3ccccc3F)n2)c1 [Compound 28, 3-[5-(2-Fluoro-phenyl)-[1,2,4]oxadiazol-3-yl]-benzoic acid]",*****
10,"O=C(O)c1cccc(-c2noc(-c3cccs3)n2)c1 [Compound 29, 3-(5-Thiophen-2-yl-[1,2,4]oxadiazol-3-yl)-benzoic acid]",****
11,"C/C=C/c1nc(-c2cccc(C(=O)O)c2)no1 [Compound 30, 3-(5-Propenyl-[1,2,4]oxadiazol-3-yl)-benzoic acid]",****
12,"O=C(O)c1cccc(-c2noc(C3CCCC3)n2)c1 [Compound 31, 3-(5-Cyclopentyl-[1,2,4]oxadiazol-3-yl)-benzoic acid]",****
13,"O=C(O)c1cccc(-c2noc(Cc3cccs3)n2)c1 [Compound 32, 3-(5-Thiophen-2-ylmethyl-[1,2,4]oxadiazol-3-yl)-benzoic acid]",****
14,"O=C(O)c1cccc(-c2noc(Cc3ccc(Cl)cc3)n2)c1 [Compound 33, 3-[5-(4-Chloro-benzyl)-[1,2,4]oxadiazol-3-yl]-benzoic acid]",****
15,"O=C(O)c1cccc(-c2noc(COc3ccc(Cl)cc3)n2)c1 [Compound 34, 3-[5-(4-Chloro-phenoxymethyl)-[1,2,4]oxadiazol-3-yl]-benzoic acid]",****
16,"O=C(O)c1cccc(-c2noc(-c3ccccc3C(F)(F)F)n2)c1 [Compound 35, 3-[5-(2-Trifluoromethyl-phenyl)-[1,2,4]oxadiazol-3-yl]-benzoic acid]",****
17,"O=C(O)c1cccc(-c2noc(-c3c(F)cccc3F)n2)c1 [Compound 36, 3-[5-(2,6-Difluoro-phenyl)-[1,2,4]oxadiazol-3-yl]-benzoic acid]",****
18,"O=C(O)c1cccc(-c2noc(-c3cccc(F)c3)n2)c1 [Compound 37, 3-[5-(3-Fluoro-phenyl)-[1,2,4]oxadiazol-3-yl]-benzoic acid]",*****
